Results as given in paper PMC9402538, “Rational design of a sensitivity-enhanced tracer for discovering efficient APC–Asef inhibitors” (Nature Communications, 2022).
Several values for one entry are separate records, joined by “and”; a condition that tells them apart may be missing. Equal entries are not always repeated. Where a SMILES comes first, the peptide text is derived from it. The star is where a group is joined. Thiophene2carbonyl = O=C(c1cccs1)*

Columns and labels:
[1] = system: LS-174T cells; assay: DBZ-induced goblet cell differentiation of LS-174T cells (RT-PCR); format: cell-based; conditions: 1 μM DBZ
Procedure: . Notch inhibition by dibenzazepine (DBZ) allows colorectal stem cells to differentiate into goblet cells, and the DBZ-induced goblet cell differentiation of LS-174T cells is a well-established intestinal differentiation model. […].
Total RNA was extracted using TRIzol reagent (Takara Bio Inc., Japan) following the manufacturer’s instructions. Total RNA (1 μg) was reverse-transcribed into cDNA using the PrimeScript RT Kit (Takara Bio Inc., Japan). Quantitative real-time reverse transcription-PCR was performed using a SYBR Green kit (Vazyme, China). β-Actin mRNA was employed as a reference gene for expression normalization. The qPCR primer sequences are listed in Supplementary Table 8. […]
Supplementary Fig. 17. Effect of […] on apoptosis and cell differentiation. a,b) Flow cytometry apoptosis analysis of SW480 (a) and HIEC-6 (b) cells treated with 25 μM MAIT -516 for 48 h, the gating strategy is shown for control sample . c) RT-PCR analysis of genes involved in intestinal cell differentiation ( MUC2, ATOH1, HES1, SPDEF and TFF3) in LS-174T cells. LS-174T cells were treated […]
mean ± SD (n = 3 independent experiments). p values were calculated by one-way ANOVA with Tukey’s multiple comparisons test.
Source data are provided as a Source Data file.
(1 picture or pasted object on this page, not shown here)

[2] = target: T1, APC (303–739) (Homo sapiens, UniProt P25054); assay: FP competitive assay using tracer 7; format: binding; conditions: for FP(mp): Tracer 7, replicate wells
T1 sequence (P25054 303-739): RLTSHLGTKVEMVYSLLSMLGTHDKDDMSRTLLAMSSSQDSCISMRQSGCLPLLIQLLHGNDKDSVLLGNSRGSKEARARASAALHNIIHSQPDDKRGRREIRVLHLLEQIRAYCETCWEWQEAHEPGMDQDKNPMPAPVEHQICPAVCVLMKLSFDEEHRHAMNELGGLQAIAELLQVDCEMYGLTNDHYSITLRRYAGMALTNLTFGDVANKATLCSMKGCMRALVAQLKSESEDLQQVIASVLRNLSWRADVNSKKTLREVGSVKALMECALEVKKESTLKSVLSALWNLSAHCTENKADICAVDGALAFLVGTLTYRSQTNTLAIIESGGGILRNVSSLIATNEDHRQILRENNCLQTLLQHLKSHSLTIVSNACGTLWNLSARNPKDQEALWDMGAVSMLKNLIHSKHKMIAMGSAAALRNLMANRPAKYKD
Summary of the method: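 Fluorescence polarization competition: APC (303–739) in 50 mM HEPES pH 7.5, 300 mM NaCl, 1 mM EDTA, 1 mM DTT, preincubated 1 h at room temperature with serially diluted peptides. FITC tracer 7 then added (400 nM stock) and FP read after 1.5 h at room temperature; IC50 by nonlinear regression, triplicates.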

[3] = target: T2, APC (Homo sapiens, UniProt P25054); assay: FP competitive assay using tracer 1; format: binding; conditions: for FP(mp): Tracer 1, triplicate raw readings
T2 sequence (P25054 303-739): T1 sequence (P25054 303-739)
Procedure: In our previous study, we established an FP assay for screening APC–Asef inhibitors using FITC-labeled tracer 1 (Ac–^176[…][FITC]^195–NH2)[16]. […]. However, their Kd values measured by isothermal titration calorimetry (ITC) actually vary up to more than 20 times[16],[17]. […].
FITC-labeled tracer peptides were obtained from Changzhou Kanglong Biotech Ltd. (Changzhou, Jiangsu, China). […]. The FP signal changes upon tracer binding were measured after 1.5 h of incubation using a Synergy neo microplate reader (BioTek Instruments, Inc.) and plotted against the protein concentration. The corresponding EC50 values were generated by fitting the curves with a nonlinear regression model. […]. To make a working solution, APC (303–739) was diluted in FP buffer (50 mM HEPES, pH 7.5, 300 mM NaCl, 1 mM EDTA, 1 mM DTT). […] The FP signals were measured after 1.5 h of incubation at room temperature using a Synergy neo microplate reader. Three controls were included on each plate, i.e., blank (without protein and tracer), 100% inhibition (free tracer only), and 0% inhibition (protein/tracer complex only) controls. All experiments were performed in triplicate. The IC50 values of peptides were calculated by nonlinear regression analysis using GraphPad Prism 7.0 software.

C[C@H](NC(=O)Cc1cc(F)cc(F)c1)C(=O)N[C@@H]1C(=O)N(C)c2ccccc2-c2ccccc21 [DBZ, dibenzazepine]
mRNA level of NOTCH target gene HES1 [1]: significantly suppressed | mRNA levels of goblet cell markers (MUC2, TFF3, ATOH1, SPDEF) [1]: increasing the mRNA levels

CC(C)C[C@H](NC(=O)[C@H](CO)NC(=O)[C@H](CCC(=O)O)NC(=O)CNC(=O)[C@H](C)NC(=O)c1cccs1)C(=O)N[C@@H](Cc1ccc(O)cc1)C(=O)N[C@@H](CCC(=O)O)C(N)=O [MAI-507] (Thiophene2carbonyl-AGESLYE-NH2)
IC50 ([2]; IC50(μM) Repeat 1, Repeat 1, Table 3 source data): 0.173 µM | IC50 ([2]; IC50(μM) Repeat 2, Repeat 2, Table 3 source data): 0.162 µM | IC50 ([2]; IC50(μM) Repeat 3, Repeat 3, Table 3 source data): 0.175 µM | IC50 ([2]; IC50(μM) mean, mean of 3 repeats, Table 3 source data): 0.17 µM | IC50 ([2]; IC50 ± SD, tracer 7, APC 25 nM, average of three independent experiments): 0.17 ± 0.007 µM | FP(mp) ([2]; Conc. 0.0061 μM): 306 mp and 304 mp and 305 mp | FP(mp) ([2]; Conc. 0.0122 μM): 299 mp and 301 mp (2×) | FP(mp) ([2]; Conc. 0.0244 μM): 278 mp and 279 mp and 280 mp | FP(mp) ([2]; Conc. 0.05 μM): 256 mp (2×) and 257 mp | FP(mp) ([2]; Conc. 0.10 μM): 216 mp and 219 mp (2×) | FP(mp) ([2]; Conc. 0.20 μM): 178 mp (2×) and 173 mp | FP(mp) ([2]; Conc. 0.39 μM): 138 mp and 133 mp and 136 mp | FP(mp) ([2]; Conc. 0.78 μM): 107 mp and 99 mp and 101 mp | FP(mp) ([2]; Conc. 1.56 μM): 89 mp and 77 mp and 80 mp | FP(mp) ([2]; Conc. 3.13 μM): 75 mp and 72 mp (2×) | FP(mp) ([2]; Conc. 6.25 μM): 59 mp and 54 mp and 58 mp | FP(mp) ([2]; Conc. 12.50 μM): 60 mp (2×) and 54 mp | FP(mp) ([2]; Conc. 25.00 μM): 54 mp and 51 mp and 52 mp | FP(mp) ([2]; Conc. 50.00 μM): 57 mp (2×) and 54 mp | IC50 [3]: 340 ± 120 nM | FP(mp) ([3]; Conc. 0.05 μM): 180 mp and 182 mp | FP(mp) ([3]; Conc. 0.10 μM): 173 mp and 180 mp and 179 mp | FP(mp) ([3]; Conc. 0.20 μM): 168 mp and 169 mp and 173 mp | FP(mp) ([3]; Conc. 0.39 μM): 130 mp and 156 mp and 153 mp | FP(mp) ([3]; Conc. 0.78 μM): 56 mp and 61 mp and 98 mp | FP(mp) ([3]; Conc. 1.56 μM): 53 mp and 54 mp and 52 mp | FP(mp) ([3]; Conc. 3.13 μM): 53 mp and 50 mp and 52 mp | FP(mp) ([3]; Conc. 6.25 μM): 50 mp and 51 mp | FP(mp) ([3]; Conc. 12.50 μM): 50 mp and 47 mp and 48 mp | FP(mp) ([3]; Conc. 25.00 μM): 51 mp and 47 mp and 48 mp | FP(mp) ([3]; Conc. 50.00 μM): 49 mp and 47 mp and 48 mp | FP(mp) ([3]; Conc. 100.00 μM): 48 mp and 47 mp | FP(mp) ([3]; Conc. 200.00 μM): 48 mp | FP(mp) ([3]; Conc. 400.00 μM): 49 mp and 48 mp
